Test results: patent publication US20080146593A1, “Substituted 5-Phenyl Pyrimidines I In Therapy” (Basf Aktiengesellschaft, priority 2005, published 2008)

These compounds were tested on HeLa cells (assay: Measurement of the cell cycle inhibition in HeLa cells). Settings: HeLa B cells, 20 h incubation with compound; FACS ratio G0/G1 to G2/M vs DMSO; concentration at which 50% of cells are in cell cycle arrest.
Format: cell-based
Method: Measurement of the Cell Cycle Inhibition in HeLa Cells—Test Procedure:
HeLa B cells are grown in DMEM (Life Technologies Cat No 21969-035) supplemented with 10% Fetal Calf Serum (FCS, Life Technologies Cat No 10270-106) in 180 cm^2 Flasks at 37° C., 92% humidity and 7% CO2.
Cells are seeded at 5×10^4 cells per well in a 24-well plate. Twenty hours later the compounds are added such that the final concentration is 1×10^−6, 3.3×10^−7, 1.1×10^−7, 3.7×10^−8, 1.2×10^−8 and 1×10^−9 M in a final volume of 500 μl. DMSO alone is added to 6 wells as a control. Cells are incubated with the compounds as above for 20 h. Then cells are observed under the microscope to check for cell death, and the 24-well plate is then centrifuged at 1200 rpm for 5 min at 20° C., acceleration position 7 and break position 5 (Eppendorf centrifuge 5804R).
The supernatant is removed and the cells lysed with 0.5 ml RNase Buffer (10 mM NaCitrate, 0.1% Nonidet NP40, 50 μg/ml RNase, 10 μg/ml Propidium iodide) per well. The plates are then incubated for at least 30 min in the dark at RT and the samples then transferred to FACS tubes. Samples are measured in a FACS machine (Beckton Dickinson) at the following settings:
Instrument Settings of the FACS Calibur:
The ratio of cells in G0/G1-phase to G2/M phase is calculated and compared to the value for the controls (DMSO) only. Results are given in table 2 as the IC50 value calculated from the concentration curve plotted against the cell cycle ratio and indicate the compound concentration at which 50% of cells are in cell cycle arrest after treatment with the compound.
In the case of `Cc1nc(-n2ccnn2)nc(N2CCC(C)CC2)c1-c1c(F)cc(F)cc1F` [Example 90], the IC50 is reported as 27 nM.
`C[C@H](Nc1nc(-n2cccn2)nc(Cl)c1-c1c(F)cc(F)cc1F)C(F)(F)F` [Example 1] gave an IC50 of 4.8 nM.
`CCC(C)Nc1nc(-n2cccn2)nc(Cl)c1-c1ccc(C)cc1F` (stereo not drawn) [Example 97] showed an IC50 of 13 nM.
`CC1CCN(c2nc(C(N)=O)nc(Cl)c2-c2c(F)cccc2F)CC1` [Example 179] showed an IC50 of 53 nM.
Work on `CCCC(C)Nc1nc(-n2ccc(N)n2)nc(Cl)c1-c1ccc(C)cc1F` (stereo not drawn) [Example 121] yielded an IC50 of 50 nM.
`COc1ccc(-c2c(Cl)nc(C(C)=NO)nc2N[C@@H](C)C(C)C)c(Cl)c1` [Example 200] showed an IC50 of 47 nM.
`CC(CO)Nc1nc(-n2cc(Br)cn2)nc(Cl)c1-c1c(F)cc(F)cc1F` (stereo not drawn) [Example 124] was tested, and the IC50 was 45 nM.
With `CC(C)C(C)Nc1nc(-c2cccnn2)nc(Cl)c1-c1c(F)cc(F)cc1F` (stereo not drawn) [Example 80] the IC50 was 26 nM.
Compound `C[C@H](Nc1nc(-n2cccn2)nc(Br)c1-c1c(F)cc(F)cc1F)C(F)(F)F` [Example 207] has an IC50 of 15 nM.
Compound `CC1CCN(c2nc(-n3cccn3)nc(Cl)c2-c2c(F)cccc2F)CC1` [Example 115] has an IC50 of 23 nM.
Compound `CC(C)[C@@H](C)Nc1nc(-n2cncn2)nc(Cl)c1-c1c(F)cccc1Cl` [Example 48] has an IC50 of 13 nM.
With `Cc1nc(C)n(-c2nc(Cl)c(-c3c(F)cccc3Cl)c(N3CCC(C)CC3)n2)n1` [Example 85] the IC50 was 21 nM.
For `CON=C(N)c1nc(Cl)c(-c2ccc([N+](=O)[O-])cc2Cl)c(N[C@@H](C)C(C)C)n1` [Example 219], the IC50 was 29 nM.
`C[C@H](Nc1nc(C(N)=NO)nc(Cl)c1-c1ccc(F)cc1Cl)C(F)(F)F` [Example 172] was tested, and the IC50 was 21 nM.
Compound `CON=C(N)c1nc(Cl)c(-c2c(F)cccc2F)c(N[C@@H](C)C(C)C)n1` [Example 196] has an IC50 of 38 nM.
`CC(C)=NOc1nc(Cl)c(-c2c(F)cc(F)cc2F)c(N[C@@H](C)C(F)(F)F)n1` [Example 204] showed an IC50 of 23 nM.
Work on `C[C@H](Nc1nc(N(C)N)nc(Cl)c1-c1c(F)cc(F)cc1F)C(F)(F)F` [Example 9] yielded an IC50 of 13 nM.
Work on `CC1CCN(c2nc(-c3cccnn3)nc(Cl)c2-c2c(F)cc(F)cc2F)CC1` [Example 79] yielded an IC50 of 21 nM.
`CON=C(N)c1nc(Cl)c(-c2ccc(OC)cc2Cl)c(N[C@@H](C)C(C)C)n1` [Example 186] gave an IC50 of 33 nM.
For `Cc1nc(C(N)=NO)nc(N[C@@H](C)C(F)(F)F)c1-c1c(F)cc(F)cc1F` [Example 171], the IC50 was 54 nM.
`C=CCCN(C)c1nc(-n2ccc(N)n2)nc(Cl)c1-c1c(F)cccc1Cl` [Example 131] showed an IC50 of 48 nM.
With `Cc1ccc(-c2c(Cl)nc(-n3cc(Cl)cn3)nc2NCC(F)(F)F)c(F)c1` [Example 150] the IC50 was 50 nM.
With `CON=C(N)c1nc(Cl)c(-c2ccc(F)cc2Cl)c(N2CCCC2C)n1` (stereo not drawn) [Example 170] the IC50 was 59 nM.
`Fc1cc(F)c(-c2c(Cl)nc(-n3cccn3)nc2N2CCCCC2)c(F)c1` [Example 51] was tested, and the IC50 was 6.5 nM.
`CC1CCN(c2nc(-n3cnc(N)n3)nc(Cl)c2-c2c(F)cc(F)cc2F)CC1` [Example 94] showed an IC50 of 25 nM.
With `CC(C)[C@H](C)Nc1nc(-n2cccn2)nc(Cl)c1-c1c(F)cc(F)cc1F` [Example 138] the IC50 was 23 nM.
`CC1CCCCN1c1nc(-n2cncn2)nc(Cl)c1-c1ccc(F)cc1F` (stereo not drawn) [Example 141] was tested, and the IC50 was 46 nM.
For `CC(Nc1nc(-c2cccnn2)nc(Cl)c1-c1c(F)cc(F)cc1F)C(F)(F)F` (stereo not drawn) [Example 78], the IC50 was 21 nM.
In the case of `COc1cc(F)c(-c2c(Cl)nc(-n3cccn3)nc2N2CCC(C)CC2)c(F)c1` [Example 67], the IC50 is reported as 13 nM.
`Cc1nc(C)n(-c2nc(Cl)c(-c3c(F)cccc3F)c(N3CCC(C)CC3)n2)n1` [Example 118] showed an IC50 of 32 nM.
For `CC1CCN(c2nc(-n3ccnn3)nc(Cl)c2-c2c(F)cccc2Cl)CC1` [Example 49], the IC50 was 10 nM.
In the case of `CC(C)Nc1nc(-n2ccc(C(C)C)n2)nc(Cl)c1-c1c(F)cc(F)cc1F` [Example 22], the IC50 is reported as 32 nM.
`C[C@H](Nc1nc(-c2ccccn2)nc(Cl)c1-c1c(F)cc(F)cc1F)C(F)(F)F` [Example 12] gave an IC50 of 6.9 nM.
With `CC(C)Nc1nc(C(N)=NO)nc(Cl)c1-c1c(F)cc(F)cc1F` [Example 144] the IC50 was 25 nM.
In the case of `COc1cc(F)c(-c2c(Cl)nc(C(N)=NO)nc2N[C@@H](C)C(C)C)c(F)c1` [Example 191], the IC50 is reported as 12 nM.
With `CCCNc1nc(-n2cccn2)nc(Cl)c1-c1ccc(C)cc1F` [Example 103] the IC50 was 39 nM.
`Fc1cc(F)c(-c2c(Cl)nc(-n3cccn3)nc2N2CC=CCC2)c(F)c1` [Example 41] gave an IC50 of 38 nM.
`C[C@H](Nc1nc(-n2nccc2[N+](=O)[O-])nc(Cl)c1-c1c(F)cc(F)cc1F)C(F)(F)F` [Example 7] gave an IC50 of 21 nM.
With `CC1CCN(c2nc(-c3nccs3)nc(Cl)c2-c2c(F)cc(F)cc2F)CC1` [Example 39] the IC50 was 26 nM.
`CCNc1nc(-n2cccn2)nc(Cl)c1-c1c(F)cc(F)cc1F` [Example 164] was tested, and the IC50 was 48 nM.
For `C=CCN(C)c1nc(-n2cc(Br)cn2)nc(Cl)c1-c1c(F)cc(F)cc1F` [Example 123], the IC50 was 49 nM.
Work on `CC1CCCN(c2nc(-n3ccnn3)nc(Cl)c2-c2c(F)cc(F)cc2F)C1` (stereo not drawn) [Example 42] yielded an IC50 of 18 nM.
For `CC(=NO)c1nc(Cl)c(-c2c(F)cc(F)cc2F)c(N[C@@H](C)C(F)(F)F)n1` [Example 209], the IC50 was 18 nM.
In the case of `CCOC(=O)c1cc(C)nn1-c1nc(Cl)c(-c2c(F)cc(F)cc2F)c(N[C@H](C)C(C)C)n1` [Example 88], the IC50 is reported as 44 nM.
Compound `COc1cc(F)c(-c2c(Cl)nc(C(N)=O)nc2N[C@@H](C)C(F)(F)F)c(F)c1` [Example 189] has an IC50 of 30 nM.
`Cc1nc(C)n(-c2nc(Cl)c(-c3c(F)cc(F)cc3F)c(N3CC=CCC3)n2)n1` [Example 59] was tested, and the IC50 was 43 nM.
With `CON=C(N)c1nc(Cl)c(-c2c(F)cc(OC)cc2F)c(N[C@@H](C)C(F)(F)F)n1` [Example 182] the IC50 was 11 nM.
Compound `C[C@H](Nc1nc(-n2ccc(Br)n2)nc(Cl)c1-c1c(F)cc(F)cc1F)C(F)(F)F` [Example 38] has an IC50 of 24 nM.
Work on `CC1CCN(c2nc(-n3cncn3)nc(Cl)c2-c2c(F)cccc2F)CC1` [Example 116] yielded an IC50 of 42 nM.
Compound `CC1CCCN(c2nc(-n3cccn3)nc(Cl)c2-c2c(F)cc(F)cc2F)C1` (stereo not drawn) [Example 43] has an IC50 of 19 nM.
With `COc1cc(F)c(-c2c(Cl)nc(C(N)=O)nc2N[C@@H](C)C(C)C)c(F)c1` [Example 199] the IC50 was 33 nM.
`COc1cc(F)c(-c2c(Cl)nc(-c3ccccn3)nc2NC2CCCC2)c(F)c1` [Example 64] was tested, and the IC50 was 21 nM.
`Fc1cc(F)c(-c2c(Cl)nc(-n3cc(Br)cn3)nc2N2CCCCC2)c(F)c1` [Example 53] was tested, and the IC50 was 26 nM.
`CC(C)[C@H](C)Nc1nc(-n2ccnn2)nc(Cl)c1-c1c(F)cc(F)cc1F` [Example 139] showed an IC50 of 26 nM.
For `Cc1nc(-n2cccn2)nc(N[C@@H](C)C(F)(F)F)c1-c1c(F)cc(F)cc1F` [Example 156], the IC50 was 15 nM.
`C=C(C)CNc1nc(-n2ccc(N)n2)nc(Cl)c1-c1c(F)cc(F)cc1F` [Example 122] was tested, and the IC50 was 46 nM.
For `C[C@H](Nc1nc(C(N)=S)nc(Cl)c1-c1c(F)cccc1Cl)C(F)(F)F` [Example 169], the IC50 was 41 nM.
`CC(C)[C@H](C)Nc1nc(C(N)=NO)nc(Cl)c1-c1cc(F)ccc1Cl` [Example 201] showed an IC50 of 30 nM.
Compound `COc1cc(F)c(-c2c(Cl)nc(C(N)=NO)nc2N[C@@H](C)C(F)(F)F)c(F)c1` [Example 181] has an IC50 of 6 nM.
Compound `CC(C)C(C)Nc1nc(-c2ccccn2)nc(Cl)c1-c1c(F)cccc1F` (stereo not drawn) [Example 82] has an IC50 of 30 nM.
In the case of `Cc1c[nH]n(-c2nc(Cl)c(-c3c(F)cc(F)cc3F)c(N[C@@H](C)C(F)(F)F)n2)c1=O` [Example 153], the IC50 is reported as 27 nM.
In the case of `Cc1cc(C)n(-c2nc(Cl)c(-c3c(F)cc(F)cc3F)c(NC(C)C)n2)n1` [Example 21], the IC50 is reported as 25 nM.
In the case of `CC1CCN(c2nc(-n3cncn3)nc(Cl)c2-c2c(F)cccc2Cl)CC1` [Example 47], the IC50 is reported as 26 nM.
`CC(C)[C@H](C)Nc1nc(C(N)=NO)nc(Cl)c1-c1c(F)cccc1F` [Example 195] showed an IC50 of 20 nM.
`CC(C)Nc1nc(-n2ccc(N)n2)nc(Cl)c1-c1c(F)cc(F)cc1F` [Example 104] gave an IC50 of 47 nM.
In the case of `CC(C)Nc1nc(-c2ccccn2)nc(Cl)c1-c1c(F)cccc1F` [Example 83], the IC50 is reported as 37 nM.
With `COc1ccc(-c2c(Cl)nc(C(N)=NO)nc2N[C@@H](C)C(F)(F)F)c(Cl)c1` [Example 215] the IC50 was 14 nM.
`CON=C(N)c1nc(Cl)c(-c2ccc(F)cc2Cl)c(N[C@@H](C)C(C)C)n1` [Example 218] was tested, and the IC50 was 29 nM.
Compound `C=CCN(C)c1nc(-n2cccn2)nc(Cl)c1-c1c(F)cc(F)cc1F` [Example 142] has an IC50 of 39 nM.
